Reference: publication PMC6105673 (Nature Communications, 2018)
Non-standard residues stand in square brackets, D forms with d. *: point of attachment. Biotin = O=C1N[C@H]2[C@H](CS[C@H]2CCCCC(=O)*)N1; Hyp = O=C(O)[C@@H]1C[C@@H](O)CN1

Legend:
[1] = test system: pVHL; assay: In vitro pVHL-HIF-2α binding assay (streptavidin pull-down with IVTT HA-VHL30); conditions: synthetically hydroxylated biotinylated peptides on streptavidin-agarose, IVTT HA-VHL30, 2 h at 4 °C, stringent and mild buffer
Procedure: (§1) Fig. 4 Affinity of HIF-2α mutants for pVHL is correlated with disease phenotype. a Biotinylated HIF-2α peptides (523–541) were immobilized on a streptavidin-coated 96-well plate. Binding to various concentrations of pVHL-elongin B-elongin C (VBC) complex was assayed via ELISA with an anti-eloB antibody. Absorbance was read at 450 nm. Values represent mean of three independent experiments performed in duplicate ± SEM. *p < 0.05; **p < 0.01. b Biotinylated HIF-2αOH peptides (523–541) were immobilized on streptavidin- agarose beads and incubated with in vitro transcribed and translated (IVTT) pVHL. Streptavidin beads were pulled down (PD) and levels of HA-tagged pVHL were visualized via immmunoblotting (IB). c, d Biolayer interferometry kinetic analysis of VBC complex binding to biotinylated HIF-2α peptides (523–541). c Biotinylated peptides were coupled to streptavidin- coated biosensors and monitored for binding to VBC complex at the indicated concentrations. The data were analyzed based on a 1:1 binding model using the BLItz Pro software with the fitted curves shown as gray lines. […]
The in vitro pVHL-HIF-2α binding assay was performed according to a previously published protocol. […] Protein levels of HA-VHL30 were determined by western blotting. […]

[2] = biological target: T1, pVHL-elongin B-elongin C (VBC) complex (Homo sapiens, UniProt P40337+Q15369+Q15370); assay: Steady-state ELISA of VBC complex binding to immobilized biotinylated HIF-2α peptides; conditions: peptides (523–541) on streptavidin plate; VBC 1, 5 and 25 μg/mL; anti-elongin B antibody; three independent experiments in duplicate
T1 construct: a construct encoding N-terminal GST-tagged pVHL19 (54–213); GST (N, cleaved yes); made in house; host or cells: BL21(DE3) E. coli
Procedure: as §1
A 96-well streptavidin-coated plate (Quidel) was hydrated with ~200 μL of buffer A per well. […] Following the final wash step, the plates were developed according to manufacturer’s recommendations with ready-to-use TMB1 reagent (Thermo-fisher, Cat. No. 34028) for 20 min before being quenched with 2 N H2SO4. […]

[3] = biological target: T1, pVHL-elongin B-elongin C (VBC) complex; assay: Biolayer interferometry kinetic analysis of VBC complex binding to biotinylated HIF-2α peptides; conditions: BLItz biolayer interferometry, peptide (523–541) immobilized, purified VBC, global 1:1 model; mean of three experiments ± SEM
Procedure: Absorbance was read at 450 nm. […] The data were analyzed based on a 1:1 binding model using the BLItz Pro software with the fitted curves shown as gray lines. […] Values represent mean of three experiments conducted with independently purified protein ± SEM. * denotes uncharacterized band
Multiple concentrations of purified VBC complex were diluted in kinetics buffer and allowed to associate with immobilized peptide over 120 s. Subsequently, the SA-BLI probe was immersed into kinetics buffer for 120 s to allow for dissociation. The data were analyzed, step corrected, reference corrected, and fit to a global 1:1 binding model. Kd, ka, and kd were calculated using the BLItz Pro software.

T1 sequence (P40337 54-213): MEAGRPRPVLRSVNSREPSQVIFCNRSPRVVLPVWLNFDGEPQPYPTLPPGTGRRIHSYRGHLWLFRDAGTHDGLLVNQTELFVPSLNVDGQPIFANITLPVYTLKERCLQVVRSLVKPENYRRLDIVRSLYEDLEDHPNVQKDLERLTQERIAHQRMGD
T1 sequence (Q15370 whole entry partner): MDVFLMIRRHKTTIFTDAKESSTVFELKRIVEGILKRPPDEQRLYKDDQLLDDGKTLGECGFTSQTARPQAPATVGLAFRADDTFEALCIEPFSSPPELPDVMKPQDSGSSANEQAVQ
T1 sequence (Q15369 17-112 partner limits assumed): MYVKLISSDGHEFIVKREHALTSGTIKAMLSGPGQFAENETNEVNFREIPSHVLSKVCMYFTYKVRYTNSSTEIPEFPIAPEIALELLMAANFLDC

ka (association rate) [3]	Compound	binding of IVTT pVHL in pull-down (immunoblot, in words) [1]	binding to VBC by ELISA (absorbance at 450 nm, in words) [2]
–	HIF-2αOH L542 peptide: synthetically P531-hydroxylated HIF-2α peptide (523–542), presumably carrying L542P (Biotin-ELDLETLA[Hyp]YIPMDGEDFQP-NH2; SMILES CC[C@H](C)[C@H](NC(=O)[C@H](Cc1ccc(O)cc1)NC(=O)[C@@H]1C[C@@H](O)CN1C(=O)[C@H](C)NC(=O)[C@H](CC(C)C)NC(=O)[C@@H](NC(=O)[C@H](CCC(=O)O)NC(=O)[C@H](CC(C)C)NC(=O)[C@H](CC(=O)O)NC(=O)[C@H](CC(C)C)NC(=O)[C@H](CCC(=O)O)NC(=O)CCCC[C@@H]1SC[C@@H]2NC(=O)N[C@@H]21)[C@@H](C)O)C(=O)N1CCC[C@H]1C(=O)N[C@@H](CCSC)C(=O)N[C@@H](CC(=O)O)C(=O)NCC(=O)N[C@@H](CCC(=O)O)C(=O)N[C@@H](CC(=O)O)C(=O)N[C@@H](Cc1ccccc1)C(=O)N[C@@H](CCC(N)=O)C(=O)N1CCC[C@H]1C(N)=O)	rescued binding to pVHL	–
4.0 ± 0.4 x10^4 Ms^−1	CC[C@H](C)[C@H](NC(=O)[C@H](Cc1ccc(O)cc1)NC(=O)[C@@H]1C[C@@H](O)CN1C(=O)[C@H](C)NC(=O)[C@@H]1CCCN1C(=O)[C@@H](NC(=O)[C@H](CCC(=O)O)NC(=O)[C@H](CC(C)C)NC(=O)[C@H](CC(=O)O)NC(=O)[C@H](CC(C)C)NC(=O)[C@H](CCC(=O)O)NC(=O)CCCC[C@@H]1SC[C@@H]2NC(=O)N[C@@H]21)[C@@H](C)O)C(=O)N1CCC[C@H]1C(=O)N[C@@H](CCSC)C(=O)N[C@@H](CC(=O)O)C(=O)NCC(=O)N[C@@H](CCC(=O)O)C(=O)N[C@@H](CC(=O)O)C(=O)N[C@@H](Cc1ccccc1)C(=O)N[C@@H](CCC(N)=O)C(N)=O [HIF-2αOH (L529P)]	–	does not have a statistically significant effect
